# Measured values reported in EP2710893A1, “Methods of treating autism spectrum disorders and compositions for same” (Theta Biomedical Consulting&development Co., Inc, priority 2009, dated 2011).
# Tests used:
# mast cells = assay: Inhibition of mast cells; assay type: cell-based; settings: Mast cell
# [1] = system: brain blood vessel leakage; assay: Evans blue extravasation (brain blood vessel leakage) in mice; assay type: in vivo
# Method: Male BALB/6 mice (6 weeks old, Jackson Laboratories, Bar Harbor, ME) were injected in their tail vein with 0.2 ml of Evans blue (0.4%). Binding of Evans blue to the albumin found in the blood prevents Evans blue from escaping the circulation and constitutes a good marker from extravasation in brain parenchyma.
# Brain blood vessel leakage was assessed with Evans blue extravasation at 2 hr following Evans blue and 30 min after intraperitoneal injection of NT. Mice were anesthetized with a single intraperitoneal injection of ketamine/xylazine ([…]), an intracardiac catheter was inserted in the left ventricle, blood was withdrawn, and 10 ml normal saline was administered intracardially to wash any Evans blue from the systemic circulation. The mice were then decapitated and the whole brain was removed. For brain extravasated Evans blue measurements, the brains were first weighed and the Evans blue was then extracted in 1 ml of N,N-dimethylformamide overnight at 55 °C and the optical density was measured at 620 nm using a PerkinElmer Luminescence Spectrophotometer (Perkin Elmer, Norwalk, CT). EB concentration was calculated using a standard curve and values were normalized to the tissue weight and expressed as arbitrary units/mg of tissue. Five animals per group were estimated to be sufficient for significant differences given the variability (<50%) observed. Results of Evans blue/mg tissue were expressed as mean ± SD of percent change from control. This statistical analysis was chosen because it permits the experimental results to be compared to their own control and avoids variability from experiment to experiment. Values were then compared using the non-parametric Mann-Whitney U test. Significance is denoted by p<0.05. In order to induce brain blood vessel leakage, the mice were either treated only with an intraperitoneal injection (0.5 ml) of NT (500 nmol/kg body weight) or first pretreated with the flavonoid luteolin (40 mg/kg body weight) mixed in olive kernel extract to permit solubilization and increased absorption of the lipid-soluble luteolin. The mice not treated with luteolin were pretreated the same way only with the vehicle in order to keep the conditions similar [olive kernel extract, obtained from Minerva Edible Oils, Athens, Greece (http://www.minerva.com.gr/)]. […] When the mice were treated with both IL-33 (1 microg/mouse) and NT, brain leakage was even greater (Fig. 3); IL-33 alone had no effect. Pretreatment with the same amount of luteolin as before inhibited brain blood vessel leakage by 50% (Fig. 3). Using more luteolin could inhibit the synergistic effect of IL-33 and NT.
compound,measurement,setting,value
O=c1c(O)c(-c2ccc(O)c(O)c2)oc2cc(O)cc(O)c12 [Quercetin],inhibition at 10 µM,mast cells,80%
O=c1cc(-c2ccc(O)c(O)c2)oc2cc(O)cc(O)c12 [luteolin],inhibition of brain blood vessel leakage,"[1]; Figure 3 legend, intraperitoneal luteolin 10 min prior to injection of IL-33 plus NT",inhibited
same,inhibition of brain blood vessel leakage,"[1]; NT-induced leakage, pretreatment with luteolin 40 mg/kg body weight mixed in olive kernel extract",completely inhibited
same,inhibition of brain blood vessel leakage,"[1]; leakage induced by IL-33 (1 microg/mouse) and NT, pretreatment with luteolin 40 mg/kg body weight",50%
neurotensin [NT],increase in brain blood vessel leakage,"[1]; intraperitoneal injection of NT 500 nmol/kg body weight, Evans blue extravasation 30 min after NT, percent change from control",150%
